Measured values published in PubChem BioAssay (NCI).
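Cultured in 96-well plates, cells were exposed to test compound for 48 hours across five concentrations. GI50 is the concentration that inhibits growth by half. Definition used: TGI = concentration required for complete inhibition of growth.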

Key:
Assay in all cases: DTP human tumour cell line panel, 48 h
786-0 renal = tested on: 786-0 renal
A498 renal = tested on: A498 renal
A549 NSCLC = tested on: A549 NSCLC
ACHN renal = tested on: ACHN renal
BT-549 breast = tested on: BT-549 breast
CAKI-1 renal = tested on: CAKI-1 renal
CCRF-CEM leukemia = tested on: CCRF-CEM leukemia
COLO 205 colon = tested on: COLO 205 colon
DU-145 prostate = tested on: DU-145 prostate
EKVX NSCLC = tested on: EKVX NSCLC
HCC-2998 colon = tested on: HCC-2998 colon
HCT-116 colon = tested on: HCT-116 colon
HCT-15 colon = tested on: HCT-15 colon
HL-60(TB) leukemia = tested on: HL-60(TB) leukemia
HOP-62 NSCLC = tested on: HOP-62 NSCLC
HOP-92 NSCLC = tested on: HOP-92 NSCLC
HS 578T breast = tested on: HS 578T breast
HT29 colon = tested on: HT29 colon
IGROV1 ovarian = tested on: IGROV1 ovarian
KM12 colon = tested on: KM12 colon
LOX IMVI melanoma = tested on: LOX IMVI melanoma
MALME-3M melanoma = tested on: MALME-3M melanoma
MCF7 breast = tested on: MCF7 breast
MDA-MB-231 breast = tested on: MDA-MB-231 breast
MDA-MB-435 = tested on: MDA-MB-435
MOLT-4 leukemia = tested on: MOLT-4 leukemia
NCI-H226 lung = tested on: NCI-H226 lung
NCI-H23 lung = tested on: NCI-H23 lung
NCI-H460 lung = tested on: NCI-H460 lung
NCI-H522 lung = tested on: NCI-H522 lung
NCI/ADR-RES ovarian = tested on: NCI/ADR-RES ovarian
OVCAR-3 ovarian = tested on: OVCAR-3 ovarian
OVCAR-4 ovarian = tested on: OVCAR-4 ovarian
OVCAR-5 ovarian = tested on: OVCAR-5 ovarian
OVCAR-8 ovarian = tested on: OVCAR-8 ovarian
PC-3 prostate = tested on: PC-3 prostate
RPMI-8226 leukemia = tested on: RPMI-8226 leukemia
RXF 393 renal = tested on: RXF 393 renal
SF-268 CNS = tested on: SF-268 CNS
SF-295 CNS = tested on: SF-295 CNS
SF-539 CNS = tested on: SF-539 CNS
SK-MEL-2 melanoma = tested on: SK-MEL-2 melanoma
SK-MEL-28 melanoma = tested on: SK-MEL-28 melanoma
SK-MEL-5 melanoma = tested on: SK-MEL-5 melanoma
SK-OV-3 ovarian = tested on: SK-OV-3 ovarian
SN12C renal = tested on: SN12C renal
SNB-19 CNS = tested on: SNB-19 CNS
SNB-75 CNS = tested on: SNB-75 CNS
SR leukemia = tested on: SR leukemia
SW-620 colon = tested on: SW-620 colon
T-47D breast = tested on: T-47D breast
TK-10 renal = tested on: TK-10 renal
U251 CNS = tested on: U251 CNS
UACC-257 melanoma = tested on: UACC-257 melanoma
UACC-62 melanoma = tested on: UACC-62 melanoma
UO-31 renal = tested on: UO-31 renal

With O=C(NCC(=O)N1CC[C@H](NC2CCC(O)(c3ccc(-c4ncccn4)cn3)CC2)C1)c1cccc(C(F)(F)F)c1 (some centres not stated) the GI50 (786-0 renal) was > 100 µM, the TGI (786-0 renal) was > 100 µM and the GI50 (A498 renal) was 24.5 µM. The TGI (A498 renal) was > 100 µM, the GI50 (A549 NSCLC) was > 100 µM and the TGI (A549 NSCLC) was > 100 µM. For the same compound, the GI50 (ACHN renal) was > 100 µM, the TGI (ACHN renal) was > 100 µM and the GI50 (BT-549 breast) was 34.9 µM. The TGI (BT-549 breast) was > 100 µM, the GI50 (CAKI-1 renal) was 45.7 µM and the TGI (CAKI-1 renal) was > 100 µM. For the same compound, the GI50 (CCRF-CEM leukemia) was 88.6 µM, the TGI (CCRF-CEM leukemia) was > 100 µM and the GI50 (COLO 205 colon) was 30.2 µM. The TGI (COLO 205 colon) was > 100 µM, the GI50 (DU-145 prostate) was > 100 µM and the TGI (DU-145 prostate) was > 100 µM. The GI50 (EKVX NSCLC) was 52.7 µM, the TGI (EKVX NSCLC) was > 100 µM and the GI50 (HCC-2998 colon) was > 100 µM. The TGI (HCC-2998 colon) was > 100 µM, the GI50 (HCT-116 colon) was 36.4 µM and the TGI (HCT-116 colon) was > 100 µM. For the same compound, the GI50 (HCT-15 colon) was 52.8 µM, the TGI (HCT-15 colon) was > 100 µM and the GI50 (HL-60(TB) leukemia) was 55.4 µM. For the same compound, the TGI (HL-60(TB) leukemia) was > 100 µM, the GI50 (HOP-62 NSCLC) was 95.1 µM and the TGI (HOP-62 NSCLC) was > 100 µM. The GI50 (HOP-92 NSCLC) was 30.4 µM, the TGI (HOP-92 NSCLC) was > 100 µM and the GI50 (HS 578T breast) was 48.9 µM. For the same compound, the TGI (HS 578T breast) was > 100 µM, the GI50 (HT29 colon) was 53 µM and the TGI (HT29 colon) was > 100 µM. The GI50 (IGROV1 ovarian) was > 100 µM, the TGI (IGROV1 ovarian) was > 100 µM and the GI50 (KM12 colon) was > 100 µM. For the same compound, the TGI (KM12 colon) was > 100 µM, the GI50 (LOX IMVI melanoma) was 32.3 µM and the TGI (LOX IMVI melanoma) was > 100 µM. For the same compound, the GI50 (MALME-3M melanoma) was 37.1 µM, the TGI (MALME-3M melanoma) was > 100 µM and the GI50 (MCF7 breast) was 41.8 µM. For the same compound, the TGI (MCF7 breast) was > 100 µM, the GI50 (MDA-MB-231 breast) was 49.5 µM and the TGI (MDA-MB-231 breast) was > 100 µM. The GI50 (MDA-MB-435) was > 100 µM, the TGI (MDA-MB-435) was > 100 µM and the GI50 (MOLT-4 leukemia) was 39.8 µM. For the same compound, the TGI (MOLT-4 leukemia) was > 100 µM, the GI50 (NCI-H226 lung) was > 100 µM and the TGI (NCI-H226 lung) was > 100 µM. For the same compound, the GI50 (NCI-H23 lung) was 52.1 µM, the TGI (NCI-H23 lung) was > 100 µM and the GI50 (NCI-H460 lung) was 86.5 µM. The TGI (NCI-H460 lung) was > 100 µM, the GI50 (NCI-H522 lung) was > 100 µM and the TGI (NCI-H522 lung) was > 100 µM. The GI50 (NCI/ADR-RES ovarian) was > 100 µM, the TGI (NCI/ADR-RES ovarian) was > 100 µM and the GI50 (OVCAR-3 ovarian) was 94.9 µM. For the same compound, the TGI (OVCAR-3 ovarian) was > 100 µM, the GI50 (OVCAR-4 ovarian) was 37.7 µM and the TGI (OVCAR-4 ovarian) was > 100 µM. The GI50 (OVCAR-5 ovarian) was > 100 µM, the TGI (OVCAR-5 ovarian) was > 100 µM and the GI50 (OVCAR-8 ovarian) was > 100 µM. For the same compound, the TGI (OVCAR-8 ovarian) was > 100 µM, the GI50 (PC-3 prostate) was 51.6 µM and the TGI (PC-3 prostate) was > 100 µM. The GI50 (RPMI-8226 leukemia) was 31 µM, the TGI (RPMI-8226 leukemia) was > 100 µM and the GI50 (RXF 393 renal) was 61.7 µM. For the same compound, the TGI (RXF 393 renal) was > 100 µM, the GI50 (SF-268 CNS) was > 100 µM and the TGI (SF-268 CNS) was > 100 µM. The GI50 (SF-295 CNS) was 38.2 µM, the TGI (SF-295 CNS) was > 100 µM and the GI50 (SF-539 CNS) was 96.5 µM. For the same compound, the TGI (SF-539 CNS) was > 100 µM, the GI50 (SK-MEL-2 melanoma) was > 100 µM and the TGI (SK-MEL-2 melanoma) was > 100 µM. The GI50 (SK-MEL-28 melanoma) was > 100 µM, the TGI (SK-MEL-28 melanoma) was > 100 µM and the GI50 (SK-MEL-5 melanoma) was 18.2 µM. The TGI (SK-MEL-5 melanoma) was 46.6 µM, the GI50 (SK-OV-3 ovarian) was > 100 µM and the TGI (SK-OV-3 ovarian) was > 100 µM. The GI50 (SN12C renal) was > 100 µM, the TGI (SN12C renal) was > 100 µM and the GI50 (SNB-19 CNS) was > 100 µM. For the same compound, the TGI (SNB-19 CNS) was > 100 µM, the GI50 (SNB-75 CNS) was 20.2 µM and the TGI (SNB-75 CNS) was > 100 µM. The GI50 (SR leukemia) was 25.4 µM, the TGI (SR leukemia) was > 100 µM and the GI50 (SW-620 colon) was > 100 µM. For the same compound, the TGI (SW-620 colon) was > 100 µM, the GI50 (T-47D breast) was 22.9 µM and the TGI (T-47D breast) was > 100 µM. For the same compound, the GI50 (TK-10 renal) was > 100 µM, the TGI (TK-10 renal) was > 100 µM and the GI50 (U251 CNS) was 91.8 µM. The TGI (U251 CNS) was > 100 µM, the GI50 (UACC-257 melanoma) was 40.8 µM and the TGI (UACC-257 melanoma) was > 100 µM. The GI50 (UACC-62 melanoma) was > 100 µM, the TGI (UACC-62 melanoma) was > 100 µM and the GI50 (UO-31 renal) was 52.3 µM. The TGI (UO-31 renal) was > 100 µM.
